Data as given in ChEMBL document CHEMBL1142394, “Morphinane alkaloid dimers from Sinomenium acutum” (J Nat Prod, 2008).

Key:
A549 = test: Cytotoxicity against human A549 cells by MTT assay; assay type: functional, cell-based
HeLa = test: Cytotoxicity against human HeLa cells by MTT assay; assay type: functional, cell-based

COC1=C[C@@H]2[C@@H]3Cc4c(-c5cc(OC)c(O)c6c5C[C@H]5[C@H]7C=C(OC)C(=O)C[C@@]67CCN5C)cc(OC)c(O)c4[C@]2(CCN3C)CC1=O
IC50 (A549): 71.8 µM | IC50 (HeLa): 70.7 µM

COC1=C[C@@H]2[C@@H]3Cc4cc(-c5cc6c(c(O)c5OC)[C@@]57CCN(C)[C@@H](C6)[C@H]5C=C(OC)C(=O)C7)c(OC)c(O)c4[C@]2(CCN3C)CC1=O
IC50 (A549): 65.5 µM | IC50 (HeLa): 71.7 µM
